pIC50: −log10 of the molar value.
Molecular target: Protein farnesyltransferase (Homo sapiens, UniProt P49354+P49356)
Test: Inhibition of farnesyl transferase
Format: protein-complex assay

| pIC50 | Structure (SMILES) |
| --- | --- |
| 5.32 | CSCC[C@H](NC(=O)CN1C(=O)N(CCc2cnc[nH]2)C(=O)C1(C)c1cccc2ccccc12)C(=O)O (stereo partly drawn) |
| 6.70 | CC1(c2cccc3ccccc23)C(=O)N(CCCn2ccnc2)C(=O)N1Cc1ccc(C(=O)O)cc1 (stereo not drawn) |
| 6.14 | CC1(c2cccc3ccccc23)C(=O)N(CCCn2ccnc2)C(=O)N1Cc1cccc(Oc2ccccc2)c1 (stereo not drawn) |
| 4.40 | CC1(c2cccc3ccccc23)NC(=O)N(CCCc2cnc[nH]2)C1=O (stereo not drawn) |
| 2.60 | COC(=O)[C@H](CCSC)NC(=O)CN1C(=O)N(CCc2cnc[nH]2)C(=O)C1(C)c1cccc2ccccc12 (stereo partly drawn) |
| 6.80 | CC1(c2cccc3ccccc23)C(=O)N(CCCn2ccnc2)C(=O)N1Cc1ccc(Br)cc1 (stereo not drawn) |
| 5.55 | CCOC(=O)CN1C(=O)N(CCCc2cncn2C)C(=O)C1(C)c1cccc2ccccc12 (stereo not drawn) |
| 5.92 | CC1(c2cccc3ccccc23)C(=O)N(CCCn2ccnc2)C(=O)N1Cc1cccc(CNS(C)(=O)=O)c1 (stereo not drawn) |
| 5.77 | CC1(c2cccc3ccccc23)C(=O)N(CCCn2ccnc2)C(=O)N1Cc1cccc(C(F)(F)F)c1 (stereo not drawn) |
| 6.00 | CCOC(=O)CN1C(=O)N(CCCn2ccnc2)C(=O)C1(C)c1cccc2ccccc12 (stereo not drawn) |
| 6.46 | CC1(c2cccc3ccccc23)C(=O)N(CCCn2ccnc2)C(=O)N1Cc1ccc(CNS(C)(=O)=O)cc1 (stereo not drawn) |
| 6.05 | CC1(c2cccc3ccccc23)C(=O)N(CCCn2ccnc2)C(=O)N1Cc1ccc(C#N)cc1 (stereo not drawn) |
| 6.43 | CC1(c2cccc3ccccc23)C(=O)N(CCCn2ccnc2)C(=O)N1Cc1cccc(Br)c1 (stereo not drawn) |
| 5.96 | CC1(c2cccc3ccccc23)C(=O)N(CCCn2ccnc2)C(=O)N1Cc1ccc(S(C)(=O)=O)cc1 (stereo not drawn) |
| 6.15 | CSc1ccc(CN2C(=O)N(CCCn3ccnc3)C(=O)C2(C)c2cccc3ccccc23)cc1 (stereo not drawn) |
| 6.68 | CSCc1ccc(CN2C(=O)N(CCCn3ccnc3)C(=O)C2(C)c2cccc3ccccc23)cc1 (stereo not drawn) |
| 1.72 | COC(=O)[C@H](CCSC)NC(=O)CN1C(=O)N(Cc2cnc[nH]2)C(=O)C1(C)c1cccc2ccccc12 (stereo partly drawn) |
| 7.10 | CSc1ccc(CN2C(=O)N(CCCn3ccnc3)C(=O)C2(C)c2cccc3ccccc23)cc1C#N (stereo not drawn) |
| 3.30 | COC(=O)[C@H](CCSC)NC(=O)CN1C(=O)N(CCCc2cnc[nH]2)C(=O)C1(C)c1cccc2ccccc12 (stereo partly drawn) |
| 5.11 | CC1(c2cccc3ccccc23)NC(=O)N(CCCn2ccnc2)C1=O (stereo not drawn) |
| 6.12 | CC1(c2cccc3ccccc23)C(=O)N(CCCn2ccnc2)C(=O)N1Cc1ccc(Oc2ccccc2)cc1 (stereo not drawn) |
| 7.05 | CC1(c2cccc3ccccc23)C(=O)N(CCCn2ccnc2)C(=O)N1Cc1cccc(C#N)c1 (stereo not drawn) |
| 6.62 | CC1(c2cccc3ccccc23)C(=O)N(CCCn2ccnc2)C(=O)N1Cc1cccc(Cl)c1 (stereo not drawn) |
| 5.89 | CC1(c2cccc3ccccc23)C(=O)N(CCCn2ccnc2)C(=O)N1Cc1ccccc1C#N (stereo not drawn) |

| Structure (SMILES) | pIC50 |
| --- | --- |
| CSCC[C@H](NC(=O)CN1C(=O)N(CCCc2c[nH]cn2)C(=O)C1(C)c1cccc2ccccc12)C(=O)O (stereo partly drawn) | 6.10 |
| CC1(c2cccc3ccccc23)C(=O)N(CCCn2ccnc2)C(=O)N1Cc1ccccc1CNS(C)(=O)=O (stereo not drawn) | 6.30 |
| CSCC[C@H](NC(=O)CN1C(=O)N(Cc2c[nH]cn2)C(=O)C1(C)c1cccc2ccccc12)C(=O)O (stereo partly drawn) | 4.21 |
| CC1(c2cccc3ccccc23)C(=O)N(CCCn2ccnc2)C(=O)N1Cc1ccc(S(C)(=O)=O)c(C#N)c1 (stereo not drawn) | 6.14 |

— ChEMBL document CHEMBL1146930, “Hydantoin derivatives as non-peptidic inhibitors of Ras farnesyl transferase” (Bioorg Med Chem Lett, 2006)
